Measurements from US10538789B2, “Methods for biosynthesis of isoprene” (INVISTA NORTH AMERICA S.A.R.L., priority 2013, dated 2020).

Key:
[1] = tested on: mevalonate diphosphate decarboxylase of SEQ ID NO: 10 (CAR68209.1); test: GHMP superfamily enzyme activity assay, headspace GC-MS for isoprene; type: biochemical, Streptococcus pneumoniae; conditions: 10 mM substrate, 30 mM ATP, pH 7.0, 30° C., 24 h, GC-MS versus empty vector control
Excerpt: (§1) Each of the sequences encoding a C-terminal His-tagged gene encoding the mevalonate diphosphate decarboxylase of SEQ ID NOs: 8, 9, 10, and 11 respectively (see FIGS. 9A-9F) and the mevalonate 3-kinase of SEQ ID NO: 12 (see FIGS. 9A-9F) was cloned into a PD681-CH expression vector under control of the rhapBAD promoter, such that a C-terminal HIS tagged GHMP superfamily enzyme could be produced. Each expression vector was transformed into a BL21[DE3] E. coli host. The resulting recombinant E. coli strains were cultivated at 37° C. in a 5L shake flask culture containing 1L Luria Broth (LB) media and kanamycin antibiotic selection pressure, with shaking at 90 rpm. At an OD600 between 0.6 to 0.8, the culture was induced with L-rhamnose to a final concentration of 2 g/L. The cultures was induced for 6 h at 37° C. The pellets from the induced shake flask cultures were harvested via centrifugation and stored at −20° C. […]
(§2) Each enzyme activity assay was performed in an assay buffer composed of 100 mM HEPES (pH=7.0), 100 mM KCl, 30 mM MgCl2, 30 mM ATP, 2 mM DTT and 10 mM of 3-methyl-3-hydroxypent-4-enoate as substrate. […] The headspace of each glass vial was analysed by GC-MS for isoprene and compared to the empty vector control. […]

[2] = molecular target: T1, mevalonate diphosphate decarboxylase of SEQ ID NO: 11 (CAA66158.1) (Saccharomyces cerevisiae, UniProt P32377); test: as above; type: biochemical; conditions: 10 mM substrate, 30 mM ATP, pH 7.0, 30° C., 24 h, GC-MS versus empty vector control
T1 construct: His tag (C); made in house; host or cells: E. coli BL21[DE3]
T1 sequence (P32377 1-396): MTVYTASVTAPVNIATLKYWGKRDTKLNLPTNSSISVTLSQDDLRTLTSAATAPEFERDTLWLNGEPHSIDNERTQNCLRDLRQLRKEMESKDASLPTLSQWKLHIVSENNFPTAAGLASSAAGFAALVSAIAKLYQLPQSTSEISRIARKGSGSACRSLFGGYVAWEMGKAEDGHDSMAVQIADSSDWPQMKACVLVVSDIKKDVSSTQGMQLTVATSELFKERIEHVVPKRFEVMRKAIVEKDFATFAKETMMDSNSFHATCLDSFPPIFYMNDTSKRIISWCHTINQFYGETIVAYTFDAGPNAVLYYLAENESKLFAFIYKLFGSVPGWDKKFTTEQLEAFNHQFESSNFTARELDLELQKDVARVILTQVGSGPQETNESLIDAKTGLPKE
Excerpt: as §1, §2

[3] = molecular target: T2, mevalonate 3-kinase of SEQ ID NO: 12 (CAC12426.1) (Thermoplasma acidophilum, UniProt Q9HIN1); test: as above; type: biochemical; conditions: 10 mM substrate, 30 mM ATP, pH 7.0, 30° C., 24 h, GC-MS versus empty vector control
T2 construct: His tag (C); made in house; host or cells: E. coli BL21[DE3]
T2 sequence (Q9HIN1 1-318): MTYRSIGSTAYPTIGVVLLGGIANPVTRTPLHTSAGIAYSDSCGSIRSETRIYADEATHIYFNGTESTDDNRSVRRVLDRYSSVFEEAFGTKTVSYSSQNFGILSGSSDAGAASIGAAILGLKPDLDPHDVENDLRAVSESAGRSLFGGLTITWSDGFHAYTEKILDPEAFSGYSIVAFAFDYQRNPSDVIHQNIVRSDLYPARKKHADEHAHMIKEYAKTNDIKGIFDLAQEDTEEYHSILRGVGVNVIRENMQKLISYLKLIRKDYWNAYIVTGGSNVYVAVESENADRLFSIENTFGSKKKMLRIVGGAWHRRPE
Excerpt: as §1, §2

[4] = tested on: mevalonate diphosphate decarboxylase of SEQ ID NO: 8 (AAK33797.1); test: as above; type: biochemical, Streptococcus pyogenes; conditions: 10 mM substrate, 30 mM ATP, pH 7.0, 30° C., 24 h, GC-MS versus empty vector control
Excerpt: as §1, §2

[5] = tested on: mevalonate diphosphate decarboxylase of SEQ ID NO: 9 (AHF01884.1); test: as above; type: biochemical, Thioalkalimicrobium aerophilum; conditions: 10 mM substrate, 30 mM ATP, pH 7.0, 30° C., 24 h, GC-MS versus empty vector control
Excerpt: as §1, §2

[6] = molecular target: T3, enoyl-CoA hydratase encoded by phaJ (SEQ ID NO: 16) (Aeromonas caviae, UniProt O32472); test: Native enzyme activity assay in the forward (hydration) direction, spectrophotometry at 263 nm; type: biochemical, Aeromonas punctata; conditions: for acceptance as substrate, hydration direction, inferred from reversibility of the enzyme reaction: inferred from the dehydration results and the favoured hydration direction
T3 construct: His tag (C); made in house; host or cells: E. coli BL21[DE3]
T3 sequence (O32472 1-134): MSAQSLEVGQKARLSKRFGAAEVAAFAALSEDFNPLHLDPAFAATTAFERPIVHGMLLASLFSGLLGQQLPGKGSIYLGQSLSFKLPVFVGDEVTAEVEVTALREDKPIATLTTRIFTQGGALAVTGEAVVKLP
Description: (§3) The C-terminal his-tagged phaJ gene (SEQ ID NO: 16) from Aeromonas punctata was cloned into a pE23a expression vector under the T7 promoter. The expression vector was transformed into a BL21[DE3] E. coli host.
(§4) The resulting recombinant E. coli strain was cultivated in a 1L shake flask culture containing 100 mL Luria Broth media at 30° C., shaking at 200 rpm. The culture was induced using 1 mM IPTG for 2 h.
(§5) The pellet from each of the induced shake flask cultures was harvested by centrifugation. The pellet was resuspended in 20 mM HEPES (pH=7.2), 1 mM PMSF and 29U benzonase. The resuspended pellet was lysed via sonication. The cell debris was separated from the supernatant via centrifugation and filtered using a 0.2 μm filter.
(§6) The phaJ enzyme was purified from the supernatant using Ni-affinity chromatography and concentrated to 1.25 mg/mL.
The native enzyme activity assay in the forward (hydration) direction was undertaken in a buffer composed of 10 mM ammonium acetate (pH=8) and 1 mM of crotonyl-CoA from Sigma-Aldrich at 30° C. The enzyme activity assay reaction was initiated by adding 0.4 μM of purified enoyl-CoA hydratase to the assay buffer containing the substrate. The enzyme encoded by phaJ accepted crotonyl-CoA as substrate as confirmed via spectrophotometry at 263 nm at 30° C.

[7] = molecular target: T3, enoyl-CoA hydratase encoded by phaJ (SEQ ID NO: 16); test: Enzyme activity assay in the reverse (dehydration) direction, LC-MS; type: biochemical; conditions: 1 mM substrate, 5 μM purified enzyme, 10 mM ammonium acetate pH 8, 30° C., 1 h
Description: as §3, §4, §5, §6
(§7) The native enzyme activity assay in the reverse (dehydration) direction was undertaken in a buffer composed of 10 mM ammonium acetate (pH=8) and 1 mM of racemic 3-hydroxybutanoyl-CoA. The enzyme activity assay reaction was initiated by adding 5 μM of purified enoyl-CoA hydratase to the assay buffer containing the substrate and incubated at 30° C. for 1 h. The enzyme encoded by phaJ accepted 3-hydroxybutanoyl-CoA as substrate as confirmed via LC-MS.
as §7, with “non-native” for “native”, “3-methyl-3-hydroxypentanoyl-CoA.” for “racemic 3-hydroxybutanoyl-CoA.”, “3-methyl-3-hydroxypentanoyl-CoA” for “3-hydroxybutanoyl-CoA”
The non-native enzyme activity assay in the reverse (dehydration) direction was undertaken in a buffer composed of 10 mM ammonium acetate (pH=8) and 1 mM of 4-methyl-3-hydroxypentanoyl-CoA. […]

[8] = molecular target: T4, linalool dehydratase of SEQ ID NO: 13 (CBW30776.1) (Castellaniella defragrans, UniProt E1XUJ2); test: Whole cell assay of linalool dehydratase in recombinant E. coli, headspace GC-MS for isoprene; type: cell-based; conditions: 20 mM substrate, 160 mg/mL cells in M9 minimal media, 30° C., 48 h, GC-MS versus empty vector control
T4 construct: expressed in transfected cells; host or cells: E. coli BL21[DE3], whole cells
Description: A sequence encoding a C-terminal His-tag encoding the linalool dehydratase of SEQ ID NO: 13 (see FIGS. 9A-9F) was cloned into a pET15 expression vector under control of the T7 promoter such that a C-terminal HIS tagged enzyme could be produced. The expression vector was transformed into a BL21[DE3] E. coli host. The resulting recombinant E. coli strain was cultivated at 30° C. in a 1L shake flask culture containing 100 mL Auto-Induction media and antibiotic selection pressure, shaking at 220 rpm overnight. The pellet from the induced shake flask culture was harvested via centrifugation and used immediately in a whole cell assay.
The pellet was washed and resuspended in M9 minimal media to 160 mg/mL (wet weight) and dispensed into 10 mL crimped glass vials in triplicate. The substrate 3-methyl-3-buten-2-ol was added to a final concentration of 20 mM and incubated at 30° C. at 220 rpm for 48 h. The headspace of each glass vial was analysed by GC-MS for isoprene and compared to the empty vector control (undertaken in triplicate). The gene product of SEQ ID NO: 13 accepted 3-methyl-3-buten-2-ol as substrate as confirmed via GC-MS (see FIG. 15) and synthesized isoprene as reaction product.

T4 sequence (E1XUJ2 27-397): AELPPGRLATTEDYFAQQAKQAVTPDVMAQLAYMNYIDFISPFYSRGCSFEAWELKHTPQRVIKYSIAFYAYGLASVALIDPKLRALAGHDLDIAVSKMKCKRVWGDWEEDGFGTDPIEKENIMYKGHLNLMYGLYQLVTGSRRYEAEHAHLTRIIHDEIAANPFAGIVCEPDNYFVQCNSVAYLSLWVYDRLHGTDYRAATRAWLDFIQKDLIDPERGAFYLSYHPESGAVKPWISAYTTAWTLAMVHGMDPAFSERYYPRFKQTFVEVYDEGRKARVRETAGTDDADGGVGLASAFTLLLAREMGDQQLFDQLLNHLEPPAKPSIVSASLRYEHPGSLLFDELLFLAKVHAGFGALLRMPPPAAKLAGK

With `C=CC(C)(O)CC(=O)O` (stereo not drawn) [3-methyl-3-hydroxypent-4-enoate] the “acceptance as substrate, isoprene as reaction product” value (from here on “acceptance as substrate, isoprene”) [1] was “accepted”, the “acceptance as substrate, isoprene” value [2] was “accepted” and the “acceptance as substrate, isoprene” value [3] was “accepted”. The “acceptance as substrate, isoprene” value [4] was “accepted” and the “acceptance as substrate, isoprene” value [5] was “accepted”.
For `CCC(C)=CC(=O)SCCNC(=O)CCNC(=O)[C@H](O)C(C)(C)COP(=O)(O)OP(=O)(O)OC[C@H]1O[C@@H](n2cnc3c(N)ncnc32)[C@H](O)[C@@H]1OP(=O)(O)O` [3-methyl-pent-2-enoyl-CoA], the “acceptance as substrate, hydration direction, inferred from reversibility of the enzyme reaction” value [6] was “accepts”.
With `CC(C)C=CC(=O)SCCNC(=O)CCNC(=O)[C@H](O)C(C)(C)COP(=O)(O)OP(=O)(O)OC[C@H]1O[C@@H](n2cnc3c(N)ncnc32)[C@H](O)[C@@H]1OP(=O)(O)O` [4-methyl-pent-2-enoyl-CoA] the “acceptance as substrate, hydration direction, inferred from reversibility of the enzyme reaction” value [6] was “accepts”.
In the case of `CC(O)CC(=O)SCCNC(=O)CCNC(=O)[C@H](O)C(C)(C)COP(=O)(O)OP(=O)(O)OC[C@H]1O[C@@H](n2cnc3c(N)ncnc32)[C@H](O)[C@@H]1OP(=O)(O)O` (mixture of isomers) [3-hydroxybutanoyl-CoA, reference compound], the “acceptance as substrate, reverse (dehydration) direction” value (shortened to “acceptance as substrate, reverse”) [7] is reported as “accepted”.
In the case of `CCC(C)(O)CC(=O)SCCNC(=O)CCNC(=O)[C@H](O)C(C)(C)COP(=O)(O)OP(=O)(O)OC[C@H]1O[C@@H](n2cnc3c(N)ncnc32)[C@H](O)[C@@H]1OP(=O)(O)O` (stereo partly drawn) [3-methyl-3-hydroxypentanoyl-CoA], the “acceptance as substrate, reverse” value [7] is reported as “accepted”.
With `C/C=C/C(=O)SCCNC(=O)CCNC(=O)[C@H](O)C(C)(C)COP(=O)(O)OP(=O)(O)OC[C@H]1O[C@@H](n2cnc3c(N)ncnc32)[C@H](O)[C@@H]1OP(=O)(O)O` [crotonyl-CoA, reference compound] the “acceptance as substrate, forward (hydration) direction” value ([6]; 1 mM substrate, 0.4 μM purified enzyme, 10 mM ammonium acetate pH 8, 30° C., spectrophotometry at 263 nm) was “accepted”.
For `C=C(C)C(C)O` (stereo not drawn) [3-methyl-3-buten-2-ol], the “acceptance as substrate, isoprene” value [8] was “accepted”.
`CC(C)C(O)CC(=O)SCCNC(=O)CCNC(=O)[C@H](O)C(C)(C)COP(=O)(O)OP(=O)(O)OC[C@H]1O[C@@H](n2cnc3c(N)ncnc32)[C@H](O)[C@@H]1OP(=O)(O)O` (stereo partly drawn) [4-methyl-3-hydroxypentanoyl-CoA] was tested, and the “acceptance as substrate, reverse” value [7] was “accepted”.
